“Also recorded” adds a separate entry of the source.
What was measured:
Type in all cases: cell-based, human
[1] = test system: p16^INK4A, p21^CIP1 and SMP30; assay: Western blot of senescence-associated marker proteins in HNDFs
Method: In addition, in FIG. 2C, HNDFs are incubated with ANA (10 μM), ANH (10 μM) and ANM (10 μM) in the presence of HG (30 mM) for 72 h. Senescence-associated marker proteins such as p16^INK4A, p21^CIP1 and SMP30 are determined by western blot analysis.
In order to assess the cellular and molecular basis of the ANM-mediated inhibition of senescence, the expression levels of senescence-associated marker proteins including, p16^INK4A and p21^CIP1 are examined. In FIG. 4D, to determine the effect of ANM on senescence-associated protein expression, HNDFs are incubated with ANM (10 μM) or NAC (100 μM) in the presence or absence of HG (30 mM) for 72 h. Immunoblotting analysis is used to determine the protein levels with corresponding specific antibodies.
(§1) Cells are lysed by either RIPA lysis buffer or nuclear and cytoplasmic extraction reagents (Thermo Fisher Scientific). Protein concentrations are determined by Bio-Rad protein assay reagent (Bio-Rad Laboratories, Hercules, Calif.). Equal amounts of protein samples (60 μg) are separated by 7-12% SDS-PAGE and the separated proteins are transferred onto polyvinylidene […] (PVDC) membrane overnight. The transferred protein membranes are blocked with 5% non-fat dried milk for 30 min, followed by incubation with specific primary antibodies overnight, and either horseradish peroxidase-conjugated goat anti-rabbit or anti-mouse antibodies for 2 h. The blots are detected using VL Chemi-Smart 3000 (Viogene Biotek, Sunnyvale, Calif.) with the enhanced chemiluminescence (ECL) western blotting reagent (Millipore, Billerica, Mass.).

[2] = test system: HNDFs; assay: Cell-cycle distribution by flow cytometry (PI) in HNDFs; conditions: ANM 10 μM or NAC 100 μM + HG 30 mM, 72 h; HG 71.2%, NG 46.5%
Method: Senescence is well-defined as an irreversible arrest in the G0/G1 phase of the cell-cycle, triggered by various physiological and chemical stimuli including HG. It is thus paradoxical that HG-induced senescence is associated with cell-cycle arrest. Please refer to FIG. 3A˜FIG. 3C, which are views showing HG-induced growth arrest blocked by ANM in HNDFs. As shown in the figures, to further explore this paradoxical relationship, HNDFs are treated with HG and ANM or N-acetylcysteine (NAC). In FIG. 3A, HNDFs are incubated with ANM (10 μM) or NAC (100 μM) in the presence of HG (30 mM) for 72 h. Cell-cycle distribution is measured by flow cytometer using PI. Percentage of cell population in each transition phase is shown in a histogram view.
HNDFs at a density of 5×10^5 cells in 10 cm dishes are treated with ANM or NAC in the presence or absence of HG for 72 h. Cells are collected, washed with PBS and fixed in 95% cold-ethanol, and kept at −20° C. overnight. The cell pellet is then washed again with PBS and centrifuged at 1500×g for 5 min. The pellet is re-suspended in 1 mL PI/Triton X-100 (20 μg/mL PI, 0.1% Triton X-100 and 0.2 mg/mL RNAse) and incubated on ice for 30 min. The total cellular DNA content is analyzed with a flow cytometer (Beckman Coulter FC500). Data are acquired and analyzed using CXP software (Beckman Coulter).

[3] = test system: Nrf2; assay: Nrf2 nuclear localization by immunofluorescence in HNDFs; conditions: ANM 10 μM or NAC 100 μM, 2 h
Method: Transcriptional activation of Nrf2 is dependent upon the rate of […] followed by disassociation from cytoplasmic Keap-1. In FIG. 5F, to determine the nuclear localization of Nrf2, HNDFs are incubated with ANM (10 μM) or NAC (100 μM) in the presence or absence or HG (30 mM) for 2 h. The protein expression and localization of Nrf2 are measured by immunofluorescence using Nrf2 specific primary antibody and fluorescein isothiocyanate-conjugated secondary antibody (green). The subcellular and nuclear localization of Nrf2 is photographed using a fluoroscence microscope. DAPI (1 μM) is used to stain the nucleus.
HNDFs at a density of 1×10^4 cells/well are cultured in an eight-well glass Nunc Lab-Tek chamber (ThermoFisher Scientific, Waltham, Mass.). Cells are treated with ANM or NAC in the presence or absence of HG for 2-72 h. After incubation, culture medium is removed and cells are fixed in 4% paraformaldehyde for 15 min, permeabilized with 0.1% Triton X-100 for 10 min, washed and blocked with 10% FBS in PBS, and then incubated overnight with the corresponding primary antibodies in 1.5% FBS. […] Next, the cells are stained with 1 μg/mL 4′,6-diamidino-2-phenylindole (DAPI, Cell Signaling Technology) for 5 min, washed with PBS, and visualized using a fluorescence microscope (Motic Electric Group) at 40× magnification.

[4] = test system: SIRT-1; assay: Immunoblotting of SIRT-1 and phos-SIRT-1 in HUVECs; conditions: ANM or RES + HG
Method: To determine whether ANM regulates HUVEC senescence through a SIRT-1-mediated pathway, protein expression levels of SIRT-1 are examined. In FIG. 9E, protein expression levels of SIRT-1 and phos-SIRT-1 are monitored by immunoblotting.
as §1

SMILES	SMP30 protein under HG (western blot) ([1]; 10 μM + HG 30 mM, 72 h)	HG-induced p16^INK4A and p21^CIP1 protein expression ([1]; 10 μM + HG 30 mM, 72 h, western blot)	basal level of p21^CIP1 expression ([1]; ANM alone, no HG)	cell population in the G0/G1 phase [2]	Nrf2 expression in the nucleus [3]	HG-induced SIRT-1 phosphorylation at Ser47 in HUVECs [4]	SIRT-1 expression in HUVECs under HG [4]
C=C(CCC(C)C1CCC2C3=C(C(=O)C(O)C21C)C1(C)CCC(O)C(C)C1CC3)C(C)C(=O)O (stereo not drawn) [ANM, antcin M]	significantly upregulated	significantly downregulated; also recorded: significantly attenuates	significantly reduces	49.5%	elevated Nrf2 expression in the nucleus	significantly blocks	significantly rescues
CC(=O)N[C@@H](CS)C(=O)O [NAC, N-acetylcysteine, reference compound]	–	–	–	partially blocks	elevated Nrf2 expression in the nucleus	–	–

Reference: patent US20180318199A1, “Pharmaceutical Composition Having Anti-Aging Properties against High-Glucose” (TAIWAN LEADER BIOTECH CORP., priority 2017, published 2018)
